Tests used:
WCRW larvae = experiment: Residual activity of treated soil maintained outdoors, water pH 6, 7, 8 (Example 4); type: in vivo, Diabrotica virgifera virgifera
Procedure: A solution of the Test Formula A was prepared by making dilutions in water to form a solution. Dry, Midwestern soil was brought up to 15% moisture with treatment solutions (Table 5). Buckets of treated soil were carted outside daily between Monday and Friday and exposed to direct sunlight. Carts were not wheeled out on days that forecasted precipitation. At the end of each day, soil buckets were brought back into the laboratory, weighed, the appropriate amount of water added to the soil to bring it back up to 15% moisture, and covered overnight; daily records of weights and amount of water added to each bucket was recorded.
At 30DAT, 42DAT, 57DAT, and 85DAT, […] WCRW larvae were infested into treated soil containing and germinating corn seed and evaluated 6 days after infestation (6DAI) for percent control and larval stunting. There were 6 replicates per infestation date with 5 larvae per replicate (n=30). Treatments applied to dry Midwestern soil for assessment of residual WCRW included Test Formula at 67, 267, and 1,069 ppm, Capture LFR at 1988.5 and 3,977 ppm.

2nd instar WCRW = experiment: Residual activity of treated Midwestern soil kept in lab at 15% moisture (Example 5); type: in vivo, Diabrotica virgifera virgifera
Procedure: In order to induce seed germination prior to test initiation, corn seed was submerged in water for 12 h and then placed between layers of moistened paper towel for 72 h. Plastic Dart® containers (1 oz/30 ml) were utilized for the assay. Treatments included tetraniliprole Test Formula according to the present invention, Capture LFR® (bifenthrin), and Rugby® (cadusafos). A 60 g ai/ha foliar rate applied at a volume of 30GPA equates to 213.8 ppm. If this application rate was condensed into a 6″ T-band application that assumed a 30″ row spacing, the ppm rate would increase to 1069 ppm (213.8 ppm×5). Five rates were selected for the experimental treatment (Test Formula) and compared to a single rate of two standard treatments (Capture LFR and Rugby). Treatment solutions (Table 4) were mixed into dry, sifted, Midwestern soil, from Wyoming, Illinois, by adding 300mLs of solution into 2000 g of soil and equates to approximate 15% soil moisture value; soil clumped when pinched.
An estimated 0.75 cm of treated soil was placed into the bottom of each container, one germinated corn seed was placed onto the soil, and then the arenas were capped with a lid until rootworms were infested. Corn was covered with approximately 1.75 cm of treated soil. Using a fine tipped paint brush, 5 WCRW larvae (2nd instar) were transferred onto the soil of each replicate and then capped. There were 8 replicates and 40 larvae per treatment. Arenas containing soil, corn, and larvae were transferred into the Insectary room (≈23° C., 0 L:24D) and evaluated 6 days later for the presence of living larvae. Larvae not recovered within each arena were considered dead. Additional treated soil was maintained within a 5 gallon bucket, covered with aluminum […], and weights recorded. Additional water was added every Monday in order to maintain a 15% soil moisture level.
All mortality data was analyzed by ANOVA/GLM with an alpha of 0.1 (Minitab 16.0).

## tetraniliprole
WCRW larvae; 67 ppm (3.75 g ai/ha), soil kept outdoors, water pH 6, 7 or 8
  control to WCRW larvae: ≥ 87%
WCRW larvae; 67 ppm, 57 DAT and 85 DAT
  state of surviving larvae compared to the non-treated check: severely stunted
2nd instar WCRW; 3.75 g ai/ha, 0 DAT
  size of larvae: approximately half the size as the untreated check
2nd instar WCRW; 15, 30, 60 g ai/ha, lab soil at 15% moisture
  control to 2nd instar WCRW larvae at 64DAT: ≥ 95%
2nd instar WCRW; all treated soils, 0 DAT
  larval stunting compared to the untreated check: Stunted larvae were detected
  protection to the root and shoot system of corn: evident
2nd instar WCRW; lab soil 15% moisture, 66.8 ppm (3.75 g ai/ha in-furrow), after 144 h within treated soil
  2nd instar WCRW: % Mortality 0DAT: < 80%
2nd instar WCRW; lab soil 15% moisture, 133.6 ppm (7.5 g ai/ha in-furrow), after 144 h within treated soil
  2nd instar WCRW: % Mortality 0DAT: < 80%
2nd instar WCRW; lab soil, 534.5 ppm (30 g ai/ha in-furrow), after 144 h
  2nd instar WCRW: % Mortality 0DAT: 97.5%
2nd instar WCRW; lab soil, 1069 ppm (60 g ai/ha in-furrow), after 144 h
  2nd instar WCRW: % Mortality 0DAT: 97.5%
